In the NIST ThermoML archive (doi:10.1016/j.jct.2011.10.014):
Several values for one entry are separate records, joined by “and”; a condition that tells them apart may be missing. Equal values may be shown once.

Experiment: molar heat capacity at constant pressure
Settings: 101.33 kPa, Crystal, Vacuum adiabatic calorimetry

O=C([O-])[O-].[Pb+2] [lead(II) carbonate]
Settings	molar heat capacity at constant pressure
4.385 K	0.052 J/K/mol
4.419 K	0.0555 J/K/mol
4.738 K	0.06322 J/K/mol
4.754 K	0.06377 J/K/mol
5 K	0.0763 J/K/mol
5.09 K	0.08024 J/K/mol
5.104 K	0.08019 J/K/mol
5.342 K	0.09726 J/K/mol
5.363 K	0.09954 J/K/mol
5.585 K	0.1145 J/K/mol
5.612 K	0.1163 J/K/mol
5.83 K	0.1316 J/K/mol
5.868 K	0.1342 J/K/mol
6.078 K	0.1519 J/K/mol
6.126 K	0.1554 J/K/mol
6.413 K	0.1893 J/K/mol
6.471 K	0.1928 J/K/mol
6.838 K	0.2414 J/K/mol
6.899 K	0.256 J/K/mol
7.267 K	0.3073 J/K/mol
7.34 K	0.322 J/K/mol
7.699 K	0.3863 J/K/mol
7.78 K	0.4013 J/K/mol
8.134 K	0.4809 J/K/mol
8.222 K	0.5005 J/K/mol
8.575 K	0.5882 J/K/mol
8.668 K	0.606 J/K/mol
9.015 K	0.7106 J/K/mol
9.108 K	0.7478 J/K/mol
9.458 K	0.85 J/K/mol
9.558 K	0.8902 J/K/mol
9.903 K	1.01 J/K/mol
10 K	1.048 J/K/mol
10.01 K	1.055 J/K/mol
10.57 K	1.286 J/K/mol
10.68 K	1.33 J/K/mol
11.46 K	1.695 J/K/mol
11.57 K	1.751 J/K/mol
12.36 K	2.155 J/K/mol
12.47 K	2.216 J/K/mol
13.27 K	2.654 J/K/mol
13.38 K	2.746 J/K/mol
14.19 K	3.244 J/K/mol
14.31 K	3.33 J/K/mol
15 K	3.776 J/K/mol
15.13 K	3.866 J/K/mol
15.25 K	3.962 J/K/mol
16.07 K	4.511 J/K/mol
16.2 K	4.595 J/K/mol
17.03 K	5.162 J/K/mol
17.16 K	5.276 J/K/mol
17.99 K	5.902 J/K/mol
18.12 K	6.01 J/K/mol
18.95 K	6.635 J/K/mol
19.09 K	6.747 J/K/mol
19.93 K	7.37 J/K/mol
20 K	7.42 J/K/mol
20.06 K	7.466 J/K/mol
21.41 K	8.521 J/K/mol
21.54 K	8.639 J/K/mol
23.39 K	10.08 J/K/mol
23.53 K	10.19 J/K/mol
25 K	11.38 J/K/mol
25.4 K	11.68 J/K/mol
27.41 K	13.32 J/K/mol
29.43 K	14.96 J/K/mol
30 K	15.38 J/K/mol
31.45 K	16.55 J/K/mol
33.46 K	18.13 J/K/mol
35 K	19.37 J/K/mol
35.48 K	19.73 J/K/mol
36.7 K	20.7 J/K/mol
37.49 K	21.32 J/K/mol
38.5 K	22.12 J/K/mol
40 K	23.28 J/K/mol
40.51 K	23.65 J/K/mol
42.52 K	25.25 J/K/mol
44.53 K	26.66 J/K/mol
45 K	27.01 J/K/mol
46.54 K	28.07 J/K/mol
48.55 K	29.49 J/K/mol
50 K	30.59 J/K/mol
50.55 K	30.94 J/K/mol
52.55 K	32.41 J/K/mol
54.56 K	33.8 J/K/mol
55 K	33.98 J/K/mol
56.56 K	35.05 J/K/mol
58.57 K	36.13 J/K/mol
60 K	37.15 J/K/mol
60.52 K	37.48 J/K/mol
62.4 K	38.61 J/K/mol
64.2 K	39.65 J/K/mol
65 K	40.1 J/K/mol
65.95 K	40.66 J/K/mol
67.63 K	41.57 J/K/mol
69.27 K	42.35 J/K/mol
70 K	42.8 J/K/mol
71.59 K	43.59 J/K/mol
74.62 K	45.09 J/K/mol
75 K	45.29 J/K/mol
77.67 K	46.51 J/K/mol
79.9 K	47.55 J/K/mol
80 K	47.58 J/K/mol
80.72 K	47.85 J/K/mol
83.04 K	48.9 J/K/mol
85 K	49.68 J/K/mol
86.1 K	50.14 J/K/mol
89.18 K	51.33 J/K/mol
90 K	51.61 J/K/mol
92.25 K	52.45 J/K/mol
95 K	53.38 J/K/mol
95.34 K	53.5 J/K/mol
98.43 K	54.49 J/K/mol
100 K	55 J/K/mol
101.53 K	55.5 J/K/mol
104.63 K	56.35 J/K/mol
107.75 K	57.22 J/K/mol
110 K	57.87 J/K/mol
110.87 K	58.11 J/K/mol
114 K	58.89 J/K/mol
117.14 K	59.63 J/K/mol
120 K	60.33 J/K/mol
120.28 K	60.41 J/K/mol
123.43 K	61.11 J/K/mol
126.59 K	61.8 J/K/mol
129.77 K	62.5 J/K/mol
130 K	62.53 J/K/mol
132.94 K	63.15 J/K/mol
136.13 K	63.79 J/K/mol
139.31 K	64.43 J/K/mol
140 K	64.55 J/K/mol
142.51 K	65.03 J/K/mol
145.71 K	65.61 J/K/mol
148.92 K	66.19 J/K/mol
150 K	66.42 J/K/mol
152.13 K	66.84 J/K/mol
155.35 K	67.35 J/K/mol
158.57 K	67.88 J/K/mol
160 K	68.14 J/K/mol
161.81 K	68.4 J/K/mol
165.05 K	68.98 J/K/mol
168.31 K	69.49 J/K/mol
170 K	69.74 J/K/mol
171.58 K	70.05 J/K/mol
174.85 K	70.51 J/K/mol
178.14 K	70.92 J/K/mol
180 K	71.28 J/K/mol
181.44 K	71.38 J/K/mol
184.74 K	71.87 J/K/mol
188.04 K	72.41 J/K/mol
190 K	72.72 J/K/mol
191.34 K	72.91 J/K/mol
194.61 K	73.4 J/K/mol
197.88 K	73.88 J/K/mol
200 K	74.07 J/K/mol
201.13 K	74.3 J/K/mol
204.38 K	74.74 J/K/mol
207.61 K	75.11 J/K/mol
210 K	75.37 J/K/mol
210.84 K	75.52 J/K/mol
214.06 K	75.82 J/K/mol
217.25 K	76.33 J/K/mol
220 K	76.66 J/K/mol
220.45 K	76.69 J/K/mol
223.63 K	77.07 J/K/mol
226.8 K	77.37 J/K/mol
229.94 K	77.92 J/K/mol
230 K	77.94 J/K/mol
233.13 K	78.35 J/K/mol
236.26 K	78.83 J/K/mol
239.37 K	79.24 J/K/mol
240 K	79.27 J/K/mol
242.47 K	79.61 J/K/mol
245.56 K	79.93 J/K/mol
247.36 K	80.25 J/K/mol
247.44 K	80.03 J/K/mol
248.53 K	80.25 J/K/mol
248.62 K	80.46 J/K/mol
249.63 K	80.36 J/K/mol
250 K	80.62 J/K/mol
250.32 K	80.37 J/K/mol
250.72 K	80.4 J/K/mol
251.68 K	80.91 J/K/mol
251.81 K	80.67 J/K/mol
252.9 K	80.66 J/K/mol
253.25 K	80.99 J/K/mol
253.98 K	80.8 J/K/mol
254.73 K	81.2 J/K/mol
255.06 K	81.13 J/K/mol
255.71 K	81.1 J/K/mol
256.15 K	81.11 J/K/mol
256.2 K	81.29 J/K/mol
256.35 K	81.17 J/K/mol
257 K	81.19 J/K/mol
257.23 K	81.2 J/K/mol
257.66 K	81.19 J/K/mol
257.75 K	81.55 J/K/mol
258.31 K	81.42 J/K/mol
258.32 K	81.33 J/K/mol
258.97 K	81.78 J/K/mol
259.12 K	81.62 J/K/mol
259.4 K	81.47 J/K/mol
259.66 K	81.57 J/K/mol
260 K	81.98 J/K/mol
260.33 K	81.49 J/K/mol
260.47 K	81.78 J/K/mol
260.76 K	82.18 J/K/mol
260.93 K	82.3 J/K/mol
261 K	81.89 J/K/mol
261.55 K	81.78 J/K/mol
261.69 K	82.09 J/K/mol
262.03 K	82.18 J/K/mol
262.39 K	82.04 J/K/mol
262.62 K	82.88 J/K/mol
262.63 K	81.92 J/K/mol
263.17 K	81.79 J/K/mol
263.27 K	82.56 J/K/mol
263.7 K	82.23 J/K/mol
263.78 K	82.71 J/K/mol
263.85 K	82.12 J/K/mol
263.9 K	82.69 J/K/mol
264.53 K	82.15 J/K/mol
264.54 K	82.73 J/K/mol
264.79 K	82.47 J/K/mol
264.95 K	82.64 J/K/mol
265.18 K	82.86 J/K/mol
265.2 K	82.17 J/K/mol
265.82 K	82.91 J/K/mol
265.86 K	82.45 J/K/mol
265.88 K	82.3 J/K/mol
266.47 K	83.02 J/K/mol
266.56 K	82.66 J/K/mol
266.78 K	83.22 J/K/mol
266.94 K	82.58 J/K/mol
267.12 K	83.34 J/K/mol
267.27 K	82.4 J/K/mol
267.77 K	83.48 J/K/mol
267.85 K	83 J/K/mol
267.95 K	82.62 J/K/mol
268.01 K	82.76 J/K/mol
268.42 K	83.69 J/K/mol
268.63 K	82.71 J/K/mol
269.07 K	83.96 J/K/mol and 83 J/K/mol
269.31 K	82.9 J/K/mol
269.73 K	83.98 J/K/mol
269.75 K	84.22 J/K/mol
269.99 K	83.23 J/K/mol
270 K	83.33 J/K/mol
270.14 K	83.5 J/K/mol
270.38 K	84.12 J/K/mol
270.68 K	83.45 J/K/mol
270.74 K	83.86 J/K/mol
271.04 K	84.03 J/K/mol
271.2 K	83.78 J/K/mol
271.36 K	84.03 J/K/mol
271.7 K	84.69 J/K/mol
272.07 K	84.59 J/K/mol
272.26 K	84.68 J/K/mol
272.43 K	85.87 J/K/mol
272.67 K	88.34 J/K/mol
272.77 K	85.64 J/K/mol
273.1 K	94.33 J/K/mol
273.15 K	83.77 J/K/mol
273.3 K	90.01 J/K/mol
273.43 K	87.85 J/K/mol
273.58 K	87.5 J/K/mol
273.76 K	86.34 J/K/mol
274.21 K	85.21 J/K/mol
274.36 K	85.11 J/K/mol
274.43 K	85.57 J/K/mol
274.92 K	84.78 J/K/mol
275.09 K	85.53 J/K/mol
275.43 K	85.37 J/K/mol
275.61 K	85.08 J/K/mol
275.62 K	85.95 J/K/mol
275.76 K	86.02 J/K/mol
276.3 K	85.69 J/K/mol
276.44 K	86.06 J/K/mol
276.47 K	85.96 J/K/mol
276.49 K	86.54 J/K/mol
276.98 K	85.66 J/K/mol
277.13 K	85.86 J/K/mol
277.55 K	87.21 J/K/mol
277.67 K	85.56 J/K/mol
277.8 K	86.13 J/K/mol
278.35 K	85.61 J/K/mol
278.49 K	85.51 J/K/mol
278.57 K	85.33 J/K/mol
278.64 K	85.79 J/K/mol
279.04 K	84.8 J/K/mol
279.16 K	84.95 J/K/mol
279.34 K	85.02 J/K/mol
279.74 K	85.51 J/K/mol and 84.58 J/K/mol
279.84 K	84.46 J/K/mol
280 K	84.69 J/K/mol
280.48 K	84.25 J/K/mol
280.51 K	84.4 J/K/mol
280.87 K	84.45 J/K/mol
281.17 K	84.41 J/K/mol
281.18 K	84.61 J/K/mol
281.61 K	84.92 J/K/mol
281.86 K	84.62 J/K/mol
281.87 K	84.51 J/K/mol
282.22 K	84.71 J/K/mol
282.54 K	84.79 J/K/mol
283.3 K	84.95 J/K/mol
283.98 K	85.16 J/K/mol
284.55 K	85.29 J/K/mol
284.68 K	85.43 J/K/mol
285.39 K	85.19 J/K/mol
286.07 K	85.27 J/K/mol
286.75 K	85.41 J/K/mol
287.43 K	85.38 J/K/mol
287.49 K	85.63 J/K/mol
288.12 K	85.33 J/K/mol
288.8 K	85.51 J/K/mol
289.49 K	85.71 J/K/mol
290 K	86.01 J/K/mol
290.41 K	86 J/K/mol
293.33 K	86.4 J/K/mol
296.23 K	86.78 J/K/mol
298.15 K	87.07 J/K/mol
299.12 K	87.18 J/K/mol
300 K	87.3 J/K/mol
302 K	87.59 J/K/mol
304.88 K	87.95 J/K/mol
307.76 K	88.29 J/K/mol
310 K	88.56 J/K/mol
310.62 K	88.63 J/K/mol
313.49 K	89 J/K/mol
316.35 K	89.34 J/K/mol
320 K	89.76 J/K/mol
